Test results taken from publication PMC7879681, “Baicalein inhibits heparin-induced Tau aggregation by initializing non-toxic Tau oligomer formation” (Cell Communication and Signaling : CCS, 2021).
pIC50: −log10 of the molar value.

Target: T1, full-length Tau (hTau40WT) (Homo sapiens, UniProt P10636)
T1 construct: gene MAPT; recombinant wild type human full-length Tau (hTau40WT)
Assay: ThS fluorescence inhibition of heparin-induced aggregation of purified Tau; supported by ANS, SDS-PAGE, CD, TEM; dissolves preformed fibrils (DC50 […])
Type: biochemical

T1 sequence (P10636 2-441 isoform P10636-8): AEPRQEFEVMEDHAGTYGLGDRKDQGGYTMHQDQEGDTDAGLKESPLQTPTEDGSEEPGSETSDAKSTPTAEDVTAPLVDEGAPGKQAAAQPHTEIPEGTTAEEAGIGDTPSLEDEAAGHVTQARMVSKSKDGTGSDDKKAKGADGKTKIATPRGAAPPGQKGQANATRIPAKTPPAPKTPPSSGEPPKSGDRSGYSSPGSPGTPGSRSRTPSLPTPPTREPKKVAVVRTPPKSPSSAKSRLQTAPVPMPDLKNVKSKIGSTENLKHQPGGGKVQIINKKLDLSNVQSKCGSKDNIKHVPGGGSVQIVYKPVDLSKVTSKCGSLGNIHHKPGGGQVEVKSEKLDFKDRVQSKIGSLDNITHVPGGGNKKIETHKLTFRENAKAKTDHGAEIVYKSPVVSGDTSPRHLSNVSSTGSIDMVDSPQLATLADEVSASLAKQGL

O=c1cc(-c2ccccc2)oc2cc(O)c(O)c(O)c12 [Baicalein]
pIC50: 4.56
